Source: patent US20260337229A1 (Seattle Children's Hospital (d/b/a Seattle Children's …, priority 2022, published 2026)
Read-outs that look alike come from different tables or passages of the source. Residues, ends and D or L forms follow the SMILES beside them.

Key:
[1] = in words; cited from earlier work
[2] = Dose escalation study in DIO rats; format: in vivo, male DIO Sprague Dawley rats
Description: Male DIO Sprague Dawley rats (n=4) were fed 60% HF diet (formula: D12492; Research Diets, Inc., New Brunswick, NJ, USA; 5.21 kcal/g) for 16 weeks prior to the start of the study. Rats were changed to being singly housed and allowed to acclimate for at least one week prior to the start of this study. Animals averaged 844.15 Z 99.95 g at baseline. Baseline measures of body weight, food intake, and water intake were taken for 6 days before drug administration began. Doses for the dose escalation study included 1, 2, 5, 10, 20, 50, and 100 nmol/kg. Body weight, food and water intake were assessed just prior to the start of the dark cycle. […] In certain embodiments, the greatest anorectic effect achieved with ASK1476 occurred at the 300 nmol/kg/d dose yielding a ~34% reduction in caloric intake while ASK2131 dosed at 2 nmol/kg/d yielded a ~55% reduction in caloric intake.

[3] = 22-day long-term study in DIO rats (body weight, food and water intake); format: in vivo, male Sprague Dawley rats
Description: For studies utilizing a DIO rat model, male Sprague Dawley rats (CD-IGS rats, strain 001; approximately 4 weeks of age; 51-75 g) purchased from Charles River Laboratories (Wilmington, MA, USA). These rats were fed a diet of 60% calories from fat (Formula: D12492; Research Diets, Inc., New Brunswick, NJ, USA; 5.21 kcal/g) for 4.5 to 6 months prior to the start of the study to induce obesity. For studies utilizing lean rats, male Sprague Dawley rats (CD-IGS rats, strain 001; 226-250 g) purchased from Charles River Laboratories (Wilmington, MA, USA). All rats had ad libitum access to food and water and were kept on a 12 h light/12 h dark cycle. Animals were individually housed in a temperature (22±1° C.) and humidity (57±4%) controlled room. All body weight measurements were taken just prior to the start of the dark cycle.
(§1) Male Sprague Dawley rats were fed 60% HF diet (D12492; Research Diets, Inc; New Brunswick, NJ; 5.21 kcal/g) for 16 weeks prior to the start of the study. Rats were then singly house in BioDAQ cages (Research Diets, Inc.; New Brunswick, NJ) and allowed to acclimate to their new environment for 10 days. Baseline measures of body weight, food intake and water intake were taken for one week to balance the groups and create feeding pairs. Each group (n=6 animals/group) averaged 714.47±81.6 g at baseline (Table 3).
(§2) Effects of ASK2131 were compared to a vehicle-treated group, OXT-treated group, as well as a pair-fed control group. Three days of baseline measures were taken before subcutaneous treatment administration began on day 4 of the study. Assessments were made to body weight, food intake and water intake. ASK2131 was administered at 50 nmol/kg throughout the entire study period. […] OXT-treated animals were started at 50 nmol/kg dose for two days, followed by 150 nmol/kg, then 300 nmol/kg, until ending at 600 nmol/kg for the remainder of the study.

[4] = intranasal; in words; cited from earlier work
[5] = cited from earlier work
[6] = Blood parameters after 22-day treatment of DIO rats; format: in vivo, male Sprague Dawley rats; settings: 22 days sc, mean ± SEM, OXT n=4
Description: as §1, §2
Cardiac puncture was used to collect blood for analysis 2 h post final injection. Commercially available enzyme-linked immunosorbent assays (ELISA) were used for quantitative assessment of leptin (cat. #EZRL-83K; MilliporeSigma, Burlington, MA, USA), insulin (cat. #EZRMI-13K; MilliporeSigma, Burlington, MA, USA), and adiponectin (cat. #EZRAPD-62K MilliporeSigma, Burlington, MA, USA). Serum samples were diluted 1:500 for the adiponectin ELISA using the sample diluent provided with the kit. All ELISAs were completed following the manufacturers recommendations. Levels of glucose, cholesterol (total, HDL, and calculated LDL), triglycerides, ALT, and AST were determined in the serum on a Modular P chemistry analyzer (Roche Diagnostics, Risch-Rotkreuz, Switzerland) by the University of Washington Nutrition and Obesity Research Center's Analytic Core (Seattle, WA, USA).

[7] = iv, rat; marked [2]; cited from earlier work
[8] = sc, mouse, marked [2], cited from earlier work
[9] = cited from earlier work; remark: listed apart in the source
[10] = in words; cited from earlier work; remark: listed apart in the source
[11] = peripheral administration; in words; cited from earlier work
[12] = tested on: amygdala activation; settings: 24 IU, but not lower (12 IU) or higher (48 IU) doses; in words; cited from earlier work
[13] = tested on: OXT receptors; settings: prolonged OXT treatment, in words, cited from earlier work
[14] = ELISA, 2 h post final injection

## CCCCCCCCCCCCCCCC(=O)NCCOCCOCCOCCOCCOCCOCCOCCOCCC(=O)NCCCC[C@H](NC(=O)CNC(=O)[C@@H]1CSSC[C@H](N)C(=O)N[C@@H](Cc2ccc(O)cc2)C(=O)N[C@@H]([C@@H](C)CC)C(=O)N[C@@H](CCC(N)=O)C(=O)N[C@@H](CC(N)=O)C(=O)N1)C(=O)NCC(N)=O [ASK1476] (HELM PEPTIDE1{C.Y.I.Q.N.C.G.K.G.[am]}|PEPTIDE2{[CCCCCCCCCCCCCCCC(=O)[*:2]].[O=C(CCOCCOCCOCCOCCOCCOCCOCCOCCN[*:1])[*:2]]}$PEPTIDE1,PEPTIDE2,8:R3-2:R2|PEPTIDE1,PEPTIDE1,1:R3-6:R3$$$V2.0)
[1]
  response in a prior study: U-shaped response
[2]; 300 nmol/kg/d
  reduction in caloric intake, greatest anorectic effect: ~ 34%

## CC[C@H](C)[C@@H]1NC(=O)[C@H](Cc2ccc(O)cc2)NC(=O)[C@@H](N)CSSC[C@@H](C(=O)N2CCC[C@H]2C(=O)N[C@@H](CC(C)C)C(=O)NCC(N)=O)NC(=O)[C@H](CC(N)=O)NC(=O)[C@H](CCC(N)=O)NC1=O [OXT]
[3]; 22 days sc, ASK2131 50 nmol/kg, OXT titrated 50 to 600 nmol/kg, mean ± SEM
  Post-treatment body weight: 719 ± 20 g
[3]; 22 days sc, ASK2131 50 nmol/kg, OXT titrated 50 to 600 nmol/kg, mean ± SEM, superscripts b: p<0.01, c: p<0.001 vs vehicle, d: p<0.001 vs OXT
  % change in body weight: 0.1 ± 1 ^b %
[3]; OXT titrated to 600 nmol/kg, 95% CI 0.2550 to 40.59, p=0.0464, in words
  reduction in food intake compared to vehicle-treated group: did not exhibit a significant reduction in food intake
[3]; end of treatment, OXT titrated to 600 nmol/kg
  weight loss vs. vehicle: 5%
[3]; treatment day 9, after 8 days, OXT titrated, 95% CI −5.80 to −0.43%, p=0.014
  body weight, PMD vs vehicle: −3.12%
[4]
  body weight in obese humans: shown to reduce body weight in obese humans
  dose response in human trials: U-shaped response
[5]; after a single dose of 1000 μg (1000 nmol)
  change in body weight: 0.01%
[5]; single injection of 1000 μg (1000 nmol)
  decrease in food intake: 12%
[6]; Calculated LDL = Cholesterol − (HDL + Triglycerides/5)
  LDL, calculated: 22 ± 2 mg/dL
[6]; [14]
  Adiponectin: 60.8 ± 3.9 ng/mL
  Insulin: 7.2 ± 2.1 ng/mL
  Leptin: 54.9 ± 7.9 ng/mL
[6]; serum 2 h post final injection
  ALT: 40 ± 5 U/L
  AST: 128 ± 22 U/L
  Glucose: 203 ± 13 mg/dL
  HDL: 25 ± 2 mg/dL
  Triglycerides: 145 ± 7 mg/dL
[6]; serum 2 h post final injection, superscript b: p<0.01 vs vehicle
  Cholesterol: 76 ± 3 mg/dL
[7]
  CLplasma: 1.03 L/h/kg
  T1/2: 7.2 min
  Vd: 0.085 L/kg
[8]
  T1/2: 30 min
  Tmax: 15 min
  free Cmax: 0.191 µM
[8]; total
  Cmax: 0.216 µM
[9]; in words
  weight loss through energy expenditure: elicits weight loss through increases in energy expenditure
[9]; one month: two weeks at 0.2 mg/kg then two weeks at 0.4 mg/kg
  change in body weight: 3.3%
[10]
  blood-brain barrier passage: does not cross the blood-brain barrier
[11]
  food intake, energy expenditure, weight gain: reduces food intake, enhances energy expenditure, and prevents or reduces weight gain
[12]
  amygdala activation: significant decrease in amygdala activation
[2]; 1200 nmol/kg/d
  reduction in caloric intake, maximum effect: ~ 36%
[13]; in vitro
  desensitization of the OXT receptors: shown to promote desensitization of the OXT receptors in vitro
[13]
  OXTR binding: reductions of OXTR binding
